Measured values as given in patent US20150359884A1, “MULTI-PHOTON ISOMERISATION OF COMBRETASTATINS AND THEIR USE IN THERAPY” (priority 2011, published 2015).

Tests used:
[1] = Fluorescence lifetimes in solvents, two-photon excitation with TCSPC; type: physicochemical; conditions: 20° C., two-photon excitation 620-630 nm
Method: Fluorescence lifetimes were determined using 2PE at 630 nm with the microscope TCSPC setup (overall time response of 25 ps fwhm) and produced the results shown in Table 1. […] Characterisation of the spectroscopic properties of these latter two compounds remains to be investigated further. […] In the very viscous environment provided by glycerol the lifetime increases further to 1180 ps. In the range of alkanols studied the lifetime is closely correlated with solvent viscosity as shown in the inset to FIG. 3. […] However it is clear that the measured lifetime has the potential to report on cellular environments in FLIM studies. For E-CA4F similar trends are observed, but the overall differences in both lifetimes and quantum yields over the range of solvents are rather less than for E-CA4. The fluorescence lifetimes of E-CA4F are confined to a narrower range having values ranging from 440 ps in methanol through 740 ps in hexane to 1070 ps in glycerol. The more pronounced solvent dependence for E-CA4 no doubt reflects the more polar nature of the molecule compared with E-CA4F. The relative polarities may be judged from the partition coefficients (P) calculated according to the method of Brown et al..

[2] = Two-photon absorption cross section using reference fluorophore 9-chloroanthracene; type: physicochemical; conditions: at 620 nm, DCM
Excerpt: Cell images were overlaid using Adobe Photoshop CS3.
Published cross sections for two photon absorption (σ2, the probability of an absorption process or photon interaction) typically show large variations depending on the method of measurement, using either the Z-scan method or a reference fluorophore, and the power range and pulse duration of the laser used for excitation. We have attempted to determine values of σ2 for E-CA4 and E-ACA4 using a reference fluorophore. 9-Chloroanthracene (9CIA) was selected as a standard fluorophore with an appropriate fluorescence spectrum and for which 2PE cross-sections are available. The values of σ2 at 620 nm for E-CA4 and E-CA4F in DCM were determined to be 2.1±0.5 and 2.75±0.6 GM units respectively. […] Values of σ2 at 620 nm for E-ACA and E-DMAC were both 5.7±1.2. These larger values may be consistent with some charge transfer character of the excitation of these compounds.

[3] = Fluorescence quantum yields in solvents, UV one-photon excitation; type: physicochemical; conditions: 20° C., 290-300 nm excitation
Method: Absorption spectra were measured in either a Perkin Elmer Lambda 25 or 950 spectrophotometer. Fluorescence measurements were made with either a Spex Fluoromax or Varian Cary Eclipse spectrofluorimeter using the spectral correction curves supplied by the manufacturers. Fluorescence quantum yields with UV (one-photon) excitation were determined using either 2-aminopyridine (Φref 0.6 [7]) or 9-chloroanthracene (Φref 0.50 in dichloromethane, determined here relative to 9,10-diphenylanthracene in cyclohexane (Φref 0.97) and anthracene in ethanol (Φref 0.28 [8]) as standards. Fluorescence quantum yields were determined from the relative slopes of plots of integrated fluorescence intensity versus (1-10^−A) for samples having absorbance A≦0.1. The square of the refractive index (n^2) correction was applied when sample and reference compounds were in different solvents. Irradiation of the samples was minimized by the use of narrow excitation slits to reduce simultaneous photoisomerization.
The fluorescence quantum yields for E-CA4F were generally somewhat higher than for E-CA4.

[4] = Observed solubility in water; type: physicochemical; conditions: aqueous solution, comparison in words
[5] = Isomerization by two-photon absorption at 590 nm in DMSO solution; type: physicochemical; conditions: Z-CA4 1 mM in DMSO, two-photon excitation 590 nm
Method: FIG. 11. […] (A) Power dependence of FI from E-CA4 (0.4 mM) versus laser power at the sample. (B) Percentage conversion of Z-CA4 to the E-isomer versus laser power at the sample, calculated from the measured FI from a solution of Z-CA4 (1 mM) and a series of calibration curves using solutions of E-CA4 at each laser power.
Using 2PE the photochemical effects occur within the femtolitre volume of excitation. […] At any one instant, the concentration of isomerized compound in the focal volume will represent a steady state achieved through the balance of diffusion from the focal volume and the rate of photochemical formation.
Calibration curves were constructed of FI versus E-CA4 concentration at each laser power. These were then compared with the FI from the two-photon experiment with Z-CA4 to estimate the concentration of E-CA4 formed within the focal volume.

cells = conditions: typical toxicity assays; cited from earlier work
[6] = Picosecond time-resolved infrared (TRIR) spectroscopy of excited states; type: physicochemical; conditions: dichloromethane, 266 nm excitation
Method: The ultrafast time-resolved infrared (TRIR) experiments were performed on the ‘ULTRA’ laser system at the Science and Technology Facilities Council Rutherford Appleton Laboratory. The capabilities of the ULTRA instrument are described in detail elsewhere. Briefly, a chirped pulse amplified titanium:sapphire laser operating at 10 kHz repetition rate produced 40-80 fs duration pulses at a wavelength of 800 nm. The UV excitation pulse was generated from third harmonic generation of the 800 nm output of the amplifier with ˜50 fs duration at 266 nm, irradiating samples with a 1 μJ, 100 μm diameter beam. The mid-IR probe pulse was generated using ˜0.4 mJ of the 800 nm femtosecond output to pump an optical parametric amplifier, and difference frequency mixing of the signal and idler components. The mid-IR probe output pulses had ˜500 cm-1 bandwidth and ˜50 fs pulse duration. The UV pulses were polarized at a magic angle to the IR probe laser polarization. The timing between the pump and probe was performed using a PCcontrolled optical delay line. The sample in solution was placed between two 25 mm diameter CaF2 plates in a rasterscanned Harrick cell to limit irradiation of the sample by multiple pulses. The optical path of the sample between the two windows was controlled using a 100 μm PTFE spacer and the solution flowed using a peristaltic pump. The intensity of the transmitted mid-IR light was dispersed by a grating onto a pair of 128-element mercury-cadmium telluride array detectors (IR Associates), providing full (i.e. ˜500 cm-1) spectral coverage with every laser pulse. The overall instrument response time was ˜200 fs. A reference spectrum of the laser pulse (before the Harrick cell) was accumulated on a third, 64-element array detector and was used to remove the effects of laser fluctuations from the transient absorption data. Ground-state FTIR spectra were recorded using a Nicolet Avatar 360 spectrometer.
FIGS. 12 and 13 show the TRIR spectra of both isomers of CA4 following ultrafast electronic excitation using 266 nm, with the ground-state FTIR spectra shown beneath the time resolved data for comparison. To date there has been little characterization of combretastatins by infrared spectroscopy. However, the ground-state FTIR spectra have obvious similarities with stilbene and on this basis we assign the 1586/1581 and 1510/1509 cm-1 bands in E-CA4/Z-CA4 to the v8a ring stretches of the phenyl groups and v19a ring stretch with additional contributions from C—H in-plane bending. In the excited state spectra, there are negative absorption bands corresponding to bleaching of the ground-state absorptions and both the E- and Z-isomers are dominated by transient bands between 1350 and 1500 cm-1. At early times the transient bands show rapid shifting over about 10 cm-1 to higher wavenumbers associated with rapid ‘cooling’ of excess vibrational energy following electronic excitation as commonly observed in other molecular systems including DNA [26] and for the C═C stretching band of E-stilbene observed by time-resolved resonance Raman spectroscopy. It is also notable that for E-CA4 at pump-probe delays up to 20 ps, the intensities of the transient bands increase and this is most likely due to molecular rearrangements taking place lowering the overall symmetry of the molecule and increasing the cross-sections of these IR active modes. […]

Structure (SMILES)	Fluorescence lifetime τ ([1]; DMSO) [ns]	Fluorescence lifetime τ ([1]; EtOH, ne = non-exponential)	Fluorescence lifetime τ ([1]; Ethylene glycol, ne = non-exponential)	Fluorescence lifetime τ ([1]; Glycerol, ne = non-exponential)	Fluorescence lifetime τ ([1]; Hexane) [ns]	Fluorescence lifetime τ ([1]; MeCN, ne = non-exponential) [ns]	Fluorescence lifetime τ ([1]; MeOH, ne = non-exponential)	Two photon absorption cross section σ2 [2] [GM units]	Fluorescence quantum yield φ ([3]; DCM)	Fluorescence quantum yield φ ([3]; DMSO)	Fluorescence quantum yield φ ([3]; Hexane)	Fluorescence quantum yield φ ([3]; MeCN)	Fluorescence quantum yield φ ([3]; MeOH)	Solubility in water [4]	Concentration of E-CA4 formed within the focal volume [5]	Conversion of the initial concentration of Z-CA4 to the E-isomer [5] [%]	Concentrations required to kill cells (cells)	Excited state decay, longer lifetime (relaxed excited state) [6] [ps]	Excited state decay, shorter lifetime (biexponential fit) [6] [ps]
COc1ccc(/C=C/c2cc(OC)c(OC)c(OC)c2)cc1N [E-ACA, (E)-1-(3′-Amino-4′-methoxyphenyl)-2-(3″,4″,5″-trimethoxyphenyl)ethene]	4.8	ne	ne	ne	1.65	3.6	ne	5.7±1.2	0.43	0.28	0.38	0.41	0.11	more soluble in water than the other combretastatins studied here					
COc1ccc(/C=C\c2cc(OC)c(OC)c(OC)c2)cc1O [Z-CA4, combretastatin A4, reference compound]															about 250 μM	25	nanomolar	10.1±0.71	1.5±0.15
